Values of other authors, collected in patent US20240344040A1, “PROKARYOTIC AND EUKARYOTIC CELLS WITH BIOSYNTHESIZED SULFOTYROSINE FOR GENETIC INCORPORATION” (William Marsh Rice University, priority 2023, published 2024).

Settings: cells incubated with 1 mM pThr

- intracellular detection: cannot be detected intracellularly
Compound: C[C@@H](OP(=O)(O)O)[C@H](N)C(=O)O [phosphothreonine]
